Assay results taken from US20110067123A1, “MAO-B ELEVATION AS AN EARLY PARKINSON'S DISEASE BIOMARKER” (priority 2008, published 2011).
Read-outs that look alike come from different tables or passages of the source.

How the values were obtained:
[1] = system: ST dopaminergic synaptosomes; assay: H2O2 (DCF fluorescence) in isolated ST dopaminergic synaptosomes; format: in vivo, mouse; details: for elevation of H2O2 levels in ST dopaminergic synaptosomes: dox-induced animals co-treated, DCF fluorescence, FIG. 5C
Description: (§1) Dopaminergic and non-dopaminergic striatal synaptosomes were isolated using a modified immuno-magnetic protocol. Briefly, synaptosomes were prepared from dissected striatal tissue. Dopaminergic synaptosomes were isolated using magnetic beads conjugated to anti-rabbit IgG (Miltenyi Biotech) after capturing them using a rabbit anti-DAT antibody (Chemicon). Under a magnetic field, bead-bound synaptosomes were passed through a column and washed; flow-through in the presence of the magnetic field yielded a fraction enriched in non-dopaminergic striatal synaptosomes. Elution performed in the absence of the magnetic field yielded fractions enriched in dopaminergic striatal synaptosomes. Equal quantities of various fractions of the synaptosomes isolated using DAT antibody including the starting material or control, the unbound fraction, the flow-through, the wash and the eluate were subjected to western analysis to assess relative dopaminergic versus non-dopaminergic synaptosomal purification. Western blots were performed using antibodies against TH (Chemicon 1:500), GABA (Chemicon, 1:1000) or SNAP-25 as a synaptic protein normalization control (Chemicon, 1:1000). Band densities were quantified using a Chemimager (Alpha Innotech, San Leandro, Calif.). Approximately 94% synaptosomes in the eluate were dopaminergic according to densitometric evaluation of the western blot.
Hydrogen peroxide levels were measured in the striatal dopaminergic and nondopaminergic synaptosomes prepared as above from various groups of mice. Mice were injected in the tail vein with ˜200 μl of DCFDA (Calbiochem) which was freshly diluted 100× with PBS from a stock of 100 mg/ml in DMSO as modified from Andrews et. al.. […] Hydrogen peroxide in the synaptosomes with or without 1 mg/ml catalase for 30 min after preparation was visualized as DCF fluorescence at 488 nm excitation and 512 nm emission in a Spectramax Gemini fluorescence plate reader. The relative fluorescence was normalized to synaptosomal protein which was quantified using the Bradford reagent, Bio-Rad.

[2] = system: mesencephalic cultures; assay: Extracellular H2O2 in medium of dox-induced mesencephalic cultures (Amplex Red); format: cell-based, mouse; details: 10 μM deprenyl, 30 μM EUK189 or 500 nM apocynin, FIG. 4
Description: Primary mixed cultures were prepared from the midbrain of 14-day-old mice embryos from MAO-B transgenics and WT controls. Tissue was digested in Neurobasal medium containing 30 U/ml papain and 20 μg/ml DNase at 37° C. for 30 min and mechanically triturated. Dissociated cells were centrifuged at 500×g, resuspended in growth medium (Neurobasal medium supplemented with 10% FBS, 2 mM […], […] supplement without antioxidants, 50 U/ml penicillin, 50 U/ml streptomycin and 50 ng/ml GDNF [57]), and plated on poly-d-lysine-coated 8 well chamber slides (BD-Biocoat) at a density of 10^5 cells per ml. Mixed cultures were grown at 37° C. for 3-5 days before induction with 40 μg/ml doxycycline for 12 hours as per. […] H2O2 in the medium was assayed by Amplex Red per the manufacturer's instructions. Dopaminergic and microglial cell counts were performed following fixation of the cultured cells for 15 min with 4% formaldehyde following by T11^+ (Chemicon) or Iba1^+ (WAKO USA, Richmond, Va.) immunostaining or via uptake of ASP^+ (4-(4-(dimethylamino)styryl)-N-methylpyridinium iodide) (Invitrogen), a fluorescent analogue of dopamine. 10 μM ASP^+ was loaded on to the uninduced or induced cultures in the presence of 20 μM of desipramine to inhibit the norepinephrine transporter which would also take up the dye. ASP^+ fluorescence (red) was visualized in the T11^+ cells after immunostaining with anti-T11 antibody and Alexa fluor 488 conjugated secondary antibody. Averages of manual double blind T11^+ or fluorescent counts of three wells of culture with the same treatment were collected; counts were performed in triplicate.

[3] = system: SN dopaminergic neurons; assay: Mitochondrial superoxide in vivo (Mitosox Red) in SN dopaminergic neurons; set-up: species or system mouse; details: for increases in mitosox red fluorescence within dopaminergic SN neurons: dox-induced transgenics, co-treatment, FIG. 6; for Mean pixel intensity per cell / Total pixel fluorescence per cell: superoxide (mitosox red) in SN dopaminergic neurons, dox-induced plus co-treatment
Description: Mitosox Red (Molecular Probes) was used as an indicator to assess presence of superoxide within cellular mitochondria. 10 μg of Mitosox in 200 μl phosphate-buffered saline was injected into the tail vein of dox-induced transgenics versus controls. Animals were sacrificed 90 minutes later, brains rapidly dissected out and post-fixed overnight in 4% paraformaldehyde. Brains were sectioned at 30 μm using a cryostat. Cellular localization and site of Mitosox Red accumulation in the nigrostriatum was identified by immunofluorescence using anti-TH (Chemicon, 1:500), anti-IBA1 (Wako, 1:500) or anti-GFAP (DAKO, 1:500) antibodies visualized with Fluorescein Avidin D. Mitochondrial localization was confirmed by immunoanalysis using an anti-ATP synthase-specific antibody. Fluorescent imaging was done using a Zeiss LSM510 NLO confocal microscope and images procured using LSM software. Quantification of colocalization and fluorescent intensity was determined using the IMARIS software suite (Bitplane AG, Zurich, Switzerland) on selected cells from multiple sections.

[4] = system: mitochondrial complex I; assay: Mitochondrial complex I activity in isolated ST dopaminergic synaptosomes; format: in vivo, mouse; details: dox-induced animals co-treated
Description: as §1, with “blot. […]” for “blot.”

[5] = system: dopaminergic SN neurons; assay: Stereological TH+ SN cell counts in inducible astrocytic MAO-B transgenic mice; format: in vivo, mouse; details: dox-induced transgenic mice; co-treatment i.p. 10-30 mg/kg/day for two weeks; FIG. 3A
[6] = Striatal MPP+ levels by HPLC after MPTP injection; format: in vivo, mouse; details: 30 mg/kg MPTP, 90 minutes post injection
Description: (§2) Striatal tissue was harvested from dox versus untreated animals 90 minutes following injection of 30 mg/kg MPTP intraperitoneally, immediately immersed in ice cold 0.1 M perchloric acid and sonicated. MPP^+ was measured by HPLC as previously described. Dopamine levels were analyzed in striata dissected two weeks of induction or 24 hrs following MPTP injection post induction by HPLC followed by a 464 pulsed electrochemical detection (Neurochemistry Core, Center for Molecular Neuroscience, Vanderbilt University). Stereological cell counts were performed on immunostained brain sections from brains harvested two weeks after induction using either antibody against tyrosine hydroxylase (TH, Chemicon, 1:500) followed by biotin-labeled secondary antibody and development using DAB (Vector Laboratories). TH^+ cells were counted stereologically throughout the SNpc. Counts for dox removal were performed on brains dissected after removal of dox from the feed for a three week period. Sections were cut at a 40 μm thickness, and every 4th section was counted using a grid of 100×100 μm. Dissector size used was 35×35×12 μm. Neuronal numbers were assessed following NeuN^+ (Chemicon, 1:100) or GABA^+ (Chemicon, 1:1000) immunostaining and astrocytes via GFAP^+ (DAKO, 1:500) and s100-â (DAKO, 1:200) immunostaining. Cells were counted in the SN, striata, and cortex in three independent sections per condition and ten fields per section. […] Dopaminochrome was measured from striatal samples by HPLC as per Ochs et al.
To validate that our transgenic model expresses functionally active MAO-B, we assessed its vulnerability to acute systemic MPTP administration. […] Induced and uninduced transgenic mice and wildtype C57B16 littermates were treated with 30 mg/kg MPTP and striatal MPP levels measured via HPLC (Table 1). […]

[7] = system: tyrosine hydroxylase positive (TH+) cells in mesencephalic cultures; assay: TH+ dopaminergic cell counts and morphology in dox-induced mesencephalic cultures; format: cell-based, mouse; details: 40 μg/ml dox, twelve hours; deprenyl co-treatment (10 μM); FIG. 2A
[8] = Locomotor behavioral assessment (open field, Truscan); format: in vivo, mouse; details: induced mice, dox two weeks, deprenyl-treated
Description: Locomotor function was assessed using an automated Truscan photobeam apparatus (Colbourne Instruments, Allentown, Pa.) under illumination as previously described. Animals were habituated to the apparatus for 10 min then data collected over a 10-min period followed by analysis using Truscan 99 software. Spontaneous horizontal movement was assessed in both control and dox treated versus untreated transgenic mice via both ambulatory velocity and distance in a 10-min period.

[9] = system: astroglia; assay: Astrocyte activation by GFAP immunostaining in induced transgenic mice; format: in vivo, mouse; details: dox-treated transgenic mice, deprenyl co-treatment
Description: as §2, with “Stereological cell counts were performed on immunostained brain sections from brains harvested two weeks after induction using either antibody against tyrosine hydroxylase (TH, Chemicon, 1:500) followed by biotin-labeled secondary antibody and development using DAB (Vector Laboratories).” left out, “Counts for dox removal were performed on brains dissected after removal of dox from the feed for a three week period.” left out, “Dissector size used was 35×35×12 μm.” left out
Immunochemistry was performed on cryosections derived from the SN, striata, and CTX of fixed perfused brains from dox-induced transgenics versus controls. Astrocytic activation was assessed using primary antibodies against GFAP and s100-β. […]

[10] = system: microglia; assay: Microglial activation (Iba1 immunochemistry) in the SN; format: in vivo, mouse; details: SN of dox-induced transgenics; FIG. 7B
Description: Immunochemistry was performed on cryosections derived from the SN, striata, and CTX of fixed perfused brains from dox-induced transgenics versus controls. Astrocytic activation was assessed using primary antibodies against GFAP and s100-β. Microglial activation was detected using primary antibodies against […] Horse radish peroxidase or avidin-conjugated secondary antibodies were used to detect primary antibodies following either DAB or Fluorescein/Texas Red staining.

[11] = system: Parkinson's disease (PD) patients; details: cited from earlier work; for mortality rate: clinical PD, given after symptoms were present

| Compound | elevation of H2O2 levels in ST dopaminergic synaptosomes [1] | increase in extracellular H2O2 [2] | increases in mitosox red fluorescence within dopaminergic SN neurons [3] | Mean pixel intensity per cell [3] | Total pixel fluorescence per cell [3] | loss of CI activity in dopaminergic synaptosomes [4] | other results |
| --- | --- | --- | --- | --- | --- | --- | --- |
| CC(=O)O.CCOc1cccc(C=NCCN=Cc2cccc(OCC)c2[O-])c1[O-].[Mn] [EUK-189] | preventable | prevented the increase | prevented | 15.4 ± 4.0 | 126,757 ± 23,798 | attenuated | dopaminergic SN cell loss [5]: attenuated |
| C[n+]1ccc(-c2ccccc2)cc1 [MPP+] | – | – | – | – | – | – | Striatal MPP+ levels ([6]; Dox (induced transgenic mice)): 182 ± 3.4 ng/mg protein; Striatal MPP+ levels ([6]; No Dox (uninduced transgenic mice)): 118 ± 2.3 ng/mg protein; Striatal MPP+ levels ([6]; WT (wildtype C57Bl6 littermates)): 100 ± 3.5 ng/mg protein |
| COc1cc(C(C)=O)ccc1O [apocynin] | – | partial reduction | – | – | – | – | – |
| C#CCN(C)[C@H](C)Cc1ccccc1 [deprenyl] | preventable | prevented the increase | prevented | 10.2 ± 2.1 | 91,937 ± 19,107 | attenuated | loss in the number of TH+ cells [7]: attenuated; locomotor activity [8]: completely unaffected; astroglial branching (activation) and increased astroglial brain numbers, GFAP [9]: inhibited; microglial activation [10]: prevented; mortality rate [11]: ineffective; mortality rate ([11]; listed as selegiline): no effect; requirement of L-DOPA supplementation ([11]; early stages of symptomatic PD): delayed and reduced |
| Catalase | – | – | – | – | – | – | DCF fluorescence of dopaminergic synaptosomes from induced animals ([1]; synaptosomes treated with 1 mg/ml catalase for 30 min after preparation): reduced the fluorescence to below uninduced levels |
